According to patent US20160113931A1, “Method of treating and/or preventing neurodegenerative diseases” (University of Macau, priority 2014, published 2016):

What was measured:
primary cortical neurons = test: α-tubulin and MAP2 expression in primary cortical neurons; type: cell-based, rat; conditions: 10 and 30 μM, 14 days
Procedure: Primary culture of cortical neurons was prepared from embryonic day 18±0.5 Sprague-Dawley rats. One day after seeding, primary cortical neurons were treated with 10 and 30 μM BHDPC for 14 days. Fourteen days following BHDPC treatment, primary cortical neurons cultured on glass coverslips (Thermo Scientific) were fixed with 4% paraformaldehyde for 15 min. Following fixation, neurons were permeabilized with 0.1% Triton X-100 in Tris-buffered saline for 7 min, and blocked with 4% bovine serum albumin and 2% goat serum for 1 h. α-tubulin and MAP2 were incubated at 1:400 dilution for 1 h at room temperature and overnight at 4° C. respectively. Following primary antibody incubation, neurons were incubated with Alexa Flour 488 or 568 secondary antibodies (anti-rabbit or anti-mouse) at 1:400 dilution for 1 h at room temperature. The coverslips were then mounted on microscopic slides (Thermo Scientific) using ProLong® Gold Antifade Mountant (Molecular Probes). Neurons were imaged using the LSM 780 laser scanning microscope (Carl Zeiss). Fluorescence intensity was measured using Image J.

NIH mice = test: Acute toxicity assay in NIH mice; type: in vivo; conditions: maximum dose, observed 14 days
Procedure: NIH mice, sex in half, for acute toxicity assay was supplied by Guangzhou Medicinal Experiment Animal Center and the animal qualification code was 44007200007090 and the certificate number was SCXK (Guangdong) 2013-0002. The animals were kept in the SPF-grade animal laboratory which was conformed to the SPF grade requirement of animal testing facility, where temperature was within the range of 22° C. (±2° C.) and the humidity was in the range of 30-70%. The diurnal lighting and darkness cycle was 12 hours. The air change per hour was in the range of 10-20 times. The approval no. of the SPF animal laboratory was SYXK (Guangdong) 2005-0062. The rat chow was the SPF-grade full pellet for mouse, which was bought from Guangdong Medicinal Laboratory Animal Center. The nutritional values and the sanitation condition were conformed to the SPF-grade requirement for animal testing. Antiseptic water were given ad libitum.
NIH mice were randomly divided into 6 groups. Ten NIH mice, sex in half, were assigned to for each group. […]

ROCK1 = ROCK1 (Homo sapiens, UniProt Q13464); test: Kinase activity assay ROCK1; type: biochemical
Sequence of ROCK1 (Q13464 whole entry, species assumed, canonical isoform): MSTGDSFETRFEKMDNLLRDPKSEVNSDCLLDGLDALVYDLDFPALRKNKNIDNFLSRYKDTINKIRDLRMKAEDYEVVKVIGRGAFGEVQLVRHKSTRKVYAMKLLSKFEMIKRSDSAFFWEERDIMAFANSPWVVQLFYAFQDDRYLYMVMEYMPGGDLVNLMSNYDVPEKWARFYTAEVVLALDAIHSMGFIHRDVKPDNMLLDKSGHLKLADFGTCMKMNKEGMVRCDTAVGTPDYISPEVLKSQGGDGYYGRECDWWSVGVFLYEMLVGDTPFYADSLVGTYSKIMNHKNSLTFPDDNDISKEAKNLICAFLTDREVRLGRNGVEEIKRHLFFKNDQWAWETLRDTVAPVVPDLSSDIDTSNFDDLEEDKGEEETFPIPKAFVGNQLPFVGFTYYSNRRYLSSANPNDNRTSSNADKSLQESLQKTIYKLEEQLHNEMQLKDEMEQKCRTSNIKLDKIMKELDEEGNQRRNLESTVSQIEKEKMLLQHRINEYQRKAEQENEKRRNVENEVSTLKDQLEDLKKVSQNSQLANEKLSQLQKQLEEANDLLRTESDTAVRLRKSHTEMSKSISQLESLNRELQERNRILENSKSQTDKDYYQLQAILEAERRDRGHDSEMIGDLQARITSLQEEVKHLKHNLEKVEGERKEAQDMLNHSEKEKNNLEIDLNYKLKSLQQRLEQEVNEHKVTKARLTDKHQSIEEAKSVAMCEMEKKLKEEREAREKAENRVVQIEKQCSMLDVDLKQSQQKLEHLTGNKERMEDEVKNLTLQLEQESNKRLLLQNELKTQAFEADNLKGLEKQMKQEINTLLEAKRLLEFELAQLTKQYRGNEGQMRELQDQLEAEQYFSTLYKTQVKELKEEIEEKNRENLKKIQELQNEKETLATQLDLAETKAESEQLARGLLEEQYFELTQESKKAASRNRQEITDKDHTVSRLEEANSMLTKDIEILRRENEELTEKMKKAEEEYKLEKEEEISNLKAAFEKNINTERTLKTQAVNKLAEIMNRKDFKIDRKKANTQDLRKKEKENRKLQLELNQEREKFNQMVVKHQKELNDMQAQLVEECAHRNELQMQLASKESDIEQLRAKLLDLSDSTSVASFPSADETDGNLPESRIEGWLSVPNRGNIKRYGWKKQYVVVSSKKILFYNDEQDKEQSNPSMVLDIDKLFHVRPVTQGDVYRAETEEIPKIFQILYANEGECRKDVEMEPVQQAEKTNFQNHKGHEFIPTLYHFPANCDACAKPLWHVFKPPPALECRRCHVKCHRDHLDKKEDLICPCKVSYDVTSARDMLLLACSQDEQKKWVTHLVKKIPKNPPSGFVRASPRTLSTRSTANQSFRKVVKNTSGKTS
Description: ROCK has two isoforms (ROCK1 and ROCK2) sharing the same downstream proteins. Bioassay and molecular docking are used to compare the characteristics of BHDPC on ROCK. […] Through molecular docking and molecular dynamics simulation, the interaction between the inhibitor and ROCK1 was shown in FIG. 17.

`COc1cc(C2C(C(=O)OCc3ccccc3)=C(C)Nc3nnnn32)ccc1O` (stereo not drawn) [BHDPC, benzyl 7-(4-hydroxy-3-methoxyphenyl)-5-methyl-4,7-dihydrotetrazolo[1,5-a]pyrimidine-6-carboxylate] was tested, and the “level of microtubule-associated protein (MAP2)” value (primary cortical neurons) was “increase levels”, the “level of α-tubulin” value (primary cortical neurons) was “increase levels” and the toxic effects (NIH mice; 5 mg/kg, iv) was “no toxic effects were observed”. The toxic effects (NIH mice; 10 mg/kg, oral gavage) was “no toxic effects were observed”, the “affinity ROCK1 versus ROCK2” value (ROCK1; from IC50 values) was “better affinity for ROCK1 than ROCK2” and the IC50 (ROCK1; kinase activity assay) was 13.7 µM.
